Test results from US10479814B2, “Adenosine receptor activation reagent and the uses of thereof” (Zhejiang Subtropical Crops Research Institute, priority 2014, dated 2019).
“Also recorded” adds a separate entry of the source.

Key:
Format in all cases: in vivo
[1] = test system: pentylenetetrazole induced convulsion; test: pentylenetetrazole induced convulsion in mouse
Protocol: Male ICR mouse, 18˜22 g; purchased from Animal Experiment Center of Wenzhou Medical University. Before experiment, animals were adapted to environment for at least 5 days. Kept at 25 °C, food and water were freely fed. Based on the weight, the healthy male ICR mice were randomly divided into control group (1% DMSO, ip), model group, CCPA group (0.1 mg·kg^−1, ip), HEA group (15 mg/kg, 40 mg/kg, 60 mg/kg), DPCPX group (2 mg·kg^−1, ip), ZM241385 group (1 mg·kg^−1, 5 mg·kg^−1, ip), DPCPX+HEA (2 mg·kg^−1+40 mg/kg, ip) group and ZM241385+HEA (1 mg·kg^−1+40 mg/kg, 5 mg·kg^−1+40 mg/kg ip) group.
The survival time and mortality after convulsion were respectively recorded for each group.

[2] = test system: mouse kidney ischemia reperfusion; test: kidney ischemia reperfusion: electron microscope observation of renal tubular epithelial cells
Protocol: Male C57BL/6 mice 20-25 g, after one week of adaptive feeding to the animals, were randomly divided into eight groups: sham-operation group, IR group, HEA 5 mg/kg group, HEA 7 mg/kg group, HEA 10 mg/kg group, DPCPX (1 mg/kg) group, DPCPX (1 mg/kg)+HEA (5 mg/kg) group and DPCPX (1 mg/kg)+HEA (7.5 mg/kg) group. The mouse was weighed before operation, then peritoneally injected with pentobarbital sodium 50 mg/kg to anaesthetize the mouse, abdomen was opened by ventromedial incision, blunt dissection and the kidney pedicle was sufficiently exposed, renal ischemia was induced by clapping two side kidney pedicle with non-invasive bulldog clamp, the color of kidney change from bright red to purple black immediately, determination method of success of the experiment model can refer to the methods in literature 7 and 8. At time of 30 min of ischemia the bulldog clamp was loosened, the perfuse was restored, the color of kidney changed gradually from dark red to bright red, showing re perfusion was successful. The wound was stitched. The animals were freely fed water and food. In the sham-operation group, the mice only received operation of abdomen open, kidney pedicle and abdomen suture. The kidney IR mode were made for the mice in the remaining groups. In each drug group, before 15 minute of ischemia, the drug with corresponding concentration was speritoneally injected, in drug combination group, 15 minutes before ischemia, the drugs were given simultaneously. The section was observed using Transmission Electron Microscope ([…], from Hitachi Co. limited). The observation was conducted in Electron Microscoper Room of Wenzhou Medical University.

[3] = test system: ICAM-1 mRNA in mouse renal cortex; test: kidney ischemia reperfusion: real time quantitative PCR of ICAM-1; details: vs IR group; HEA 5, 7.5, 10 mg/kg; DPCPX 1 mg/kg; DPCPX 1 mg/kg+HEA
Protocol: Male C57BL/6 mice 20-25 g, after one week of adaptive feeding to the animals, were randomly divided into eight groups: sham-operation group, IR group, HEA 5 mg/kg group, HEA 7 mg/kg group, HEA 10 mg/kg group, DPCPX (1 mg/kg) group, DPCPX (1 mg/kg)+HEA (5 mg/kg) group and DPCPX (1 mg/kg)+HEA (7.5 mg/kg) group. […]
The MPO analysis was conducted according to the specification in the kit. 9.2.6 Real time quantitative PCR analysis of gene expression of ICAM-1, TNF-α and IL-1β; the sequence of primer used in RT-PCR reaction system is as follow:
PCR amplification reaction system: IQ SYBR Green Super mix 12.5 μL, Forward primer (10 μmo/L) 1 μL, Reverse primer (10 μmol/L) 1 μL, cDNA (water was added to dilute to same level) 10.5 μL. […] The statistics and calculation of experiment results was automatically conducted fluorescence quantitative PCR analyzing software BIO-RAD CFX Manager. Target gene mRNA expression level was calculated by 2-ΔΔCt method, and standardized using the GAPDH mRNA in corresponding specimen a standard.

| SMILES | effect of antagonist on the anti-convulsion action of the HEA ([1]; antagonist ip 10 min before HEA 40 mg/kg, DPCPX 2 mg/kg, ZM241385 1 and 5 mg/kg) | renal tubular epithelial cell ultrastructure (electron microscope) ([2]; DPCPX 1 mg/kg alone or DPCPX 1 mg/kg+HEA 5 or 7.5 mg/kg before ischemia) | ICAM-1 mRNA expression in renal cortex [3] | survival time after convulsion ([1]; HEA 40 mg/kg ip, pentylenetetrazole 100 mg/kg ip, vs control group) | mortality of mouse convulsion ([1]; HEA 40 mg/kg, pentylenetetrazole 100 mg/kg ip) | renal tubular epithelial cell ultrastructure (electron microscope) ([2]; HEA 5 mg/kg group) | renal tubular epithelial cell ultrastructure (electron microscope) ([2]; HEA 7.5 mg/kg group) | renal tubular epithelial cell ultrastructure (electron microscope) ([2]; HEA 10 mg/kg group) |
| --- | --- | --- | --- | --- | --- | --- | --- | --- |
| CCCn1c(=O)c2[nH]c(C3CCCC3)nc2n(CCC)c1=O [DPCPX, reference compound] | significantly inhibit the anti-convulsion effect of the HEA; also recorded: significantly reduce the anti-convulsion effect of the HEA | essentially no mitochondria with complete structure | not statistically significant | – | – | – | – | – |
| OCCNc1ncnc2c1ncn2[C@@H]1O[C@H](CO)[C@@H](O)[C@H]1O [HEA, N(6)-(2-hydroxyethyl)-adenosine] | – | – | significantly reduce the high expression | significantly extend the survival time | very significantly reduce the mortality | the entirety is improved compared with ischemia reperfusion group | most of the mitochondria are normal | mitochondria protection is more clear than the IR group |
